≈ marks a conversion by molar mass, not a printed value.
How the values were obtained:
[1] = system: B16; experiment: Cytotoxicity expressed as inhibitory concentration required to reduce the cell growth of B16 murine melanoma cell line; type: functional, cell-based; settings: Mus musculus
[2] = system: HCT-116; experiment: Cytotoxicity expressed as inhibitory concentration required to reduce the cell growth of HCT116 human colon carcinoma cell line; type: functional, cell-based
[3] = system: A-431; experiment: Cytotoxicity expressed as inhibitory concentration required to reduce the cell growth of A431 human epidermal carcinoma cell line; type: functional, cell-based
[4] = Inhibition ratio expressed as percentage showing significant anti-tumor activity in BDF1 mice bearing Lewis lung carcinoma cells was determined; type: functional

SMILES | IC50 [1] [µg/mL] | IC50 [2] [µg/mL] | IC50 [3] [µg/mL] | Ratio [4]
COc1ccc(C2=C(c3cc(OC)c(OC)c(OC)c3)CCC2)cc1 | > 1 | > 1 | – | –
COc1ccc(C2=C(c3cc(OC)c(OC)c(OC)c3)C(=O)CC2)cc1 | 0.015 (≈ 0.0423 µM) | 0.021 (≈ 0.0593 µM) | 0.021 (≈ 0.0593 µM) | –
COc1ccc(C2=C(c3cc(OC)c(OC)c(OC)c3)C(=O)C=C2)cc1 | 0.011 (≈ 0.0312 µM) | 0.013 (≈ 0.0369 µM) | – | –
COc1ccc(C2=C(c3cc(OC)c(OC)c(OC)c3)C(=O)CC2)cc1O | 0.013 (≈ 0.0351 µM) | 0.012 (≈ 0.0324 µM) | 0.009 (≈ 0.0243 µM) | –
COc1ccc(C2=C(c3cc(OC)c(OC)c(OC)c3)C(O)CC2)cc1 (configuration not stated) | 0.039 (≈ 0.109 µM) | 0.045 (≈ 0.126 µM) | – | –
COc1cc(C2=C(c3ccc4ccccc4c3)CCC2=O)cc(OC)c1OC | 0.029 (≈ 0.0774 µM) | 0.031 (≈ 0.0828 µM) | 0.034 (≈ 0.0908 µM) | –
COc1ccc(C2=C(c3cc(OC)c(OC)c(OC)c3)C(=O)CC2)cc1N | 0.008 (≈ 0.0217 µM) | 0.008 (≈ 0.0217 µM) | 0.009 (≈ 0.0244 µM) | 59
COc1ccc(C2=C(c3cc(OC)c(OC)c(OC)c3)COC2)cc1 | > 1 | > 1 | – | –
COc1cccc2c1C(=O)c1c(O)c3c(c(O)c1C2=O)C[C@@](O)(C(=O)CO)C[C@@H]3O[C@H]1C[C@H](N)[C@H](O)[C@H](C)O1 [DOXORUBICIN] | – | – | 0.117 (≈ 0.215 µM) | –

— ChEMBL document CHEMBL1135188, “Synthesis and anti-tumor activity of novel combretastatins: combretocyclopentenones and related analogues” (Bioorg Med Chem Lett, 2002)
